US7297714B2, “Inhibitors of cathepsin S” (IRM LLC, priority 2003, dated 2007)

Assays:
Type in all cases: biochemical
Cathepsin S = Cathepsin S (Homo sapiens, UniProt P25774); experiment: Cathepsin S inhibition assay (fluorogenic peptide substrate); details: Cathepsin S inhibition constant; pH5.5; read-out: Ki Cat. S
From the text: “Inhibition constant”, Ki, is the dissociation constant of the enzyme-inhibitor complex, or the reciprocal of the binding affinity of the inhibitor to the enzyme. For classical inhibition the value of Ki is much greater than the enzyme concentration and the Ki can be measured by monitoring the rate of reaction for a competitive substrate at multiple inhibitor concentrations. The inhibited rates are then fit by nonlinear regression to the following equation: […]
The assumption being made for the classical inhibition described above is that the free inhibitor concentration is equal to the total inhibitor concentration. For inhibitors that have Ki's that are approximately equal to the enzyme concentration [E], the assumption that the free inhibitor concentration is equal to the total inhibitor concentration is no longer valid and an alternative equation has to be fit for determination of the apparent inhibition constant, Ki^app using described methods (Kuzmic, P., K. C. Elrod, et al., Anal Biochem 2000, 286(1), 45-50):
The optimal substrate for cathepsin S, acetyl-histidine-proline-valine-lysine-amino carbamoyl coumarin, was identified from screening a combinatorial library of fluorogenic peptide substrates (Harris, J. L., B. J. Backes, et al., Proc Natl Acad Sci U S A 2000, 97(14), 7754-9). Kinetic measurements are performed in a total reaction volume of 30 μl in 384-well microtiter plates. Cathepsin S, at a final concentration of 0.3-3 nM (active site), is incubated with the compounds at twelve varying concentrations in a buffer containing 100 mM NaAc (pH5.5), 1 mM EDTA, 100 mM NaCl, 0.01% Brij-35 for 20 minutes at room temperature. Control reactions in the absence of inhibitor are performed in replicates of 24. The reactions are initiated by adding the substrate, acetyl-histidine-proline-valine-lysine-amino carbamoyl coumarin, to a final concentration of 50 μM. The rate of substrate hydrolysis is measured by monitoring the increase in fluorescence at an excitation wavelength of 380 nm and an emission wavelength of 450 nm that results from cleavage of the aniline bond in the substrate by the enzyme. The apparent inhibition constants for the compounds are determined from the enzyme progress curves (Kuzmic, P., K. C. Elrod, et al., Anal Biochem 2000, 286(1), 45-50) and are then used to calculate the inhibition constants for competitive inhibitors.

Caspase 8 = Caspase 8 (Homo sapiens, UniProt Q14790); experiment: Inhibition Assay for Caspase 8; details: Caspase-8 inhibition constant; pH 7.4; read-out: Ki Cas-8
Procedure: (§1) The widely used substrate for caspase 8, acetyl-aspartate-glutamate-valine-aspartic acid-amino carbamoyl coumarin, was used. Kinetic measurements are performed in a total reaction volume of 30 μl in 384-well microtiter plates. Caspase 8, at a final concentration of 0.2-1 nM (active site), is incubated with the compounds at twelve varying concentrations in a buffer containing 20 mM Hepes (pH 7.4), 1 mM EDTA, 100 mM NaCl, 0.1% CHAPS, 10% sucrose, 10 mM DTT for 20 minutes at room temperature. Control reactions in the absence of inhibitor are performed in replicates of 12. The reactions are initiated by adding the substrate to a final concentration of 2 μM. The rate of substrate hydrolysis is measured by monitoring the increase in fluorescence at an excitation wavelength of 380 nm and an emission wavelength of 450 nm that results from cleavage of the aniline bond in the substrate by the enzyme. The apparent inhibition constants for the compounds are determined from the enzyme progress curves (Kuzmic, Elrod et al. 2000) and are then used to calculate the inhibition constants for competitive inhibitors (Km=25.7 μM).

Caspase 1 = target: T1, Caspase 1 (Homo sapiens, UniProt P29466); experiment: Inhibition Assay for Caspase 1; details: Caspase-1 inhibition constant; pH 7.4; read-out: Ki Cas-1
T1 sequence (P29466 120-297 limits assumed): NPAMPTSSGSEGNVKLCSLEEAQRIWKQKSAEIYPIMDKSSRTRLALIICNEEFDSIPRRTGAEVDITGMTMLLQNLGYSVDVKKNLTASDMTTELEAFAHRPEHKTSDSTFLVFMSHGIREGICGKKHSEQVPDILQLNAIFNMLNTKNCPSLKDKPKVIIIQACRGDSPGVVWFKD
T1 sequence (P29466 317-404 limits assumed): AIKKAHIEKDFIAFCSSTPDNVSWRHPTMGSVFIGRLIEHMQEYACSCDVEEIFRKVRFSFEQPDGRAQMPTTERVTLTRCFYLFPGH
Procedure: as §1, with “caspase 1, acetyl-tryptophan-glutamate-histidine-spartic” for “caspase 8, acetyl-aspartate-glutamate-valine-aspartic”, “Caspase 1,” for “Caspase 8,”, “of 4” for “of 2”, “inhibitors (Km=8” for “inhibitors (Km=25.7”

Caspase 8, sequence (Q14790 217-374 limits assumed, species assumed): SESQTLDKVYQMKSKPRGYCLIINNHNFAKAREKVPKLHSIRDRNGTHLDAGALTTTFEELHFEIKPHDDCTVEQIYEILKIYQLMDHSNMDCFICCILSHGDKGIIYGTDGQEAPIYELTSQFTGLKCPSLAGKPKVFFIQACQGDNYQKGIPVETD
Caspase 8, sequence (Q14790 385-479 limits assumed, species assumed): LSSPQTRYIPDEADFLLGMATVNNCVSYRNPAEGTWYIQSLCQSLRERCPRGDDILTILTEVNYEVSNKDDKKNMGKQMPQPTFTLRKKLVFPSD
Cathepsin S, sequence (P25774 115-331, species assumed): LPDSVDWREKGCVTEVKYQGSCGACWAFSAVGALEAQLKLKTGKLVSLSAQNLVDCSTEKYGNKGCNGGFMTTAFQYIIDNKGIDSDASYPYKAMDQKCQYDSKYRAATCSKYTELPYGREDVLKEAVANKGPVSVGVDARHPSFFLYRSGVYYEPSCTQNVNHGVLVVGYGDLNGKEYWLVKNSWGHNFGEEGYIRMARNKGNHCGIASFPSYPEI

Row | SMILES | Ki (Cathepsin S) [µM] | Ki (Caspase 8) [µM] | Ki (Caspase 1) [µM]
1 | O=C1C[C@H](NC(=O)[C@H](CC2CCCCC2)OC(=O)N2CCOCC2)C(O)O1 (stereo partly drawn) [Example 3, (3S)-{3-cyclohexyl-(2S)-(morpholine-4-carbonyloxy)-propionylamino}-4-oxo-butyric acid] | < 0.1 | > 10 | > 10
2 | O=C1C[C@H](NC(=O)[C@H](CC2CCCC2)NC(=O)N2CCOCC2)C(O)O1 (stereo partly drawn) [Example 2, (3S)-{3-Cyclopentyl-(2S)-[(morpholine-4-carbonyl)-amino]-propionylamino}-4-oxo-butyric acid] | < 0.1 | > 10 | > 100
3 | O=C1C[C@H](NC(=O)[C@H](CC2CCCCC2)NS(=O)(=O)c2cccc(OC(F)(F)F)c2)C(O)O1 (stereo partly drawn) [Example 7, (3S)-[3-Cyclohexyl-(2S)-(3-trifluoromethoxy-benzenesulfonylamino)-propionylamino]-4-oxo-butyric acid] | < 0.1 | > 10 | > 10
4 | O=C[C@H](CC(=O)O)NC(=O)[C@@H](CC(=O)N1CCOCC1)CC1CCCC1 [Example 4, (3S)-[(2R)-Cyclopentylmethyl-4-morpholin-4-yl-4-oxo-butyrylamino]-4-oxo-butyric acid] | < 0.1 | > 10 | > 10
5 | O=C1C[C@H](NC(=O)O[C@@H](CC2CCCC2)Cn2cnc3cc(Cl)c(Cl)cc32)C(O)O1 (stereo partly drawn) [Example 5, (3S)-[(1S)-Cyclopentylmethyl-2-(5,6-dichloro-benzoimidazol-1-yl)-ethoxycarbonylamino]-4-oxo-butyric acid] | < 0.1 | > 10 | > 10
6 | O=C1C[C@H](NC(=O)[C@@H](CC(=O)N2CCOCC2)CC2CCCCC2)C(O)O1 (stereo partly drawn) [Example 6, (3S)-{(2R)-Cyclohexylmethyl-4-morpholin-4-yl-4-oxo-butyrylamino}-4-oxo-butyric acid] | < 0.1 | > 10 | > 100
7 | O=C1C[C@H](NC(=O)[C@H](CC2CCCC2)NS(=O)(=O)c2cccc(OC(F)(F)F)c2)C(O)O1 (stereo partly drawn) [Example 8, (3S)-[3-Cyclopentyl-(2S)-(3-trifluoromethoxy-benzenesulfonylamino)-propionylamino]-4-oxo-butyric acid] | < 0.1 | > 10 | > 100
8 | O=C1C[C@H](NC(=O)O[C@@H](CC2CCCCC2)C(=O)N2CCOCC2)C(O)O1 (stereo partly drawn) [Example 10, (3S)-[2-cyclohexyl-(1S)-(morpholin-4-carbonyl)-ethoxycarbonylamino]-4-oxo-butyric acid] | < 0.1 | > 100 | > 100
9 | CC(C)(C)C[C@H](OC(=O)N[C@H]1CC(=O)OC1O)C(=O)N1CCOCC1 (stereo partly drawn) [Example 9, (3S)-[3,3-Dimethyl-(1S)-(morpholine-4-carbonyl)-butoxycarbonylamino]-4-oxo-butyric acid] | < 0.1 | > 100 | > 100
10 | O=C1C[C@H](NC(=O)[C@H](CC2CCCC2)NC(=O)c2ccc(-c3cccc(F)c3)o2)C(O)O1 (stereo partly drawn) [Example 1, (3S)-(3-Cyclopentyl-(2S)-{[5-(3-fluoro-phenyl)-furan-2-carbonyl]-amino}-propionylamino)-4-oxo-butyric acid] | < 0.1 | > 1 | > 1
